Here are results for one substance from patent EP2667887B1, “PHARMACEUTICAL COMPOSITION COMPRISING THE PEPTIDE GLU-ASP-GLY AND USE FOR TREATING HELICOBACTER PYLORI INDUCED GASTRODUODENAL DISEASES” («Garmonia», Ltd., priority 2011, dated 2012).

The subject of one test is modeled ulcer. Kind of test: Morphology study of the induced gastric ulcer (cysteamine-HCL + Helicobacter pylori). The class given is in vivo, Sprague Dawley rats. How it is done: The study was carried out on 90 male Sprague Dawley rats (180-220 g) randomly subdivided into 9 groups (10 animals per group): • Group 1 - intact rats (saline solution) • Group 2 - modeled ulcer + saline solution • Group 3 (6 subgroups) - modeled ulcer + H-Glu-Asp-Gly-OH • Group 4 - modeled ulcer + Klacid antibiotic
Ulcer was modeled by three-time administration (in 4 hours) in the rat stomach of cysteamine-HCL (Aldrich, Milwannee, WI) by means of a probe in the dose of 25 mg per 100 g of body weight. The ulcer, approximately 28 mm^2 in size, appeared at the boundary between antral and fundal segments of the stomach 12 hours after the last administration. Simultaneously with the first administration of cysteamine-HCL a Helicobacter pylori culture (Curtin Matheson Scientific Inc, strain Cag J117, 100 microbial cells) was administered in the rat stomach through the same probe.
A means on the basis of the pharmaceutical composition comprising the studied peptide H-Glu-Asp-Gly-OH was administered subcutaneously in the dose of 1 µg per kg of animal body weight (group 3a), 2,5 µg per kg of body weight (group 3b) and 10 µg per kg of body weight (group 3c) in 0,5 ml of saline solution daily, for 5 days from the occurrence of the stomach ulcer.
The means on the basis of the pharmaceutical composition comprising the studied peptide H-Glu-Asp-Gly-OH was administered intragastrically (through a probe) in the dose of 1 µg per kg of animal body weight (group 3d), 2,5 µg per kg of body weight (group 3e) and 10 µg per kg of body weight (group 3f) in 0,5 ml of saline solution daily, for 5 days from the occurrence of the stomach ulcer.
Antibiotic Klacid (clarithromycin, Abbott) was administered intramuscularly in the dose of 10 mg in 1 ml of saline solution daily for 5 days from the occurrence of the stomach ulcer.
Material for study was taken from ulcer edge on the 7th day (for western blot assay and polymerase chain reaction in real time - RT-PCR), as well as on the 7th, 15th and 21st day for morphology study and confocal microscopy.
For a morphology study, pieces of gastric mucous membrane from the ulcer edge were fixed in 10% neutral formalin (pH 7.2), then the material was dried out in a Leica TP1020 automatic station (Leica) and covered with paraffin. 5 µm thick paraffin slices were placed on object plates covered with a poly-L-lysine film (Sigma). For a visual study the slices were stained with hematoxylin and eosin, as well as with picrofuxin by the van Gison method.

Test [1] has as its system human gastric epithelium cells SGC7901. The experiment in a line: Effect on Helicobacter pylori-induced mitochondrial mechanisms of apoptosis in gastric epitheliocytes (mito-GFP confocal microscopy). The class given is cell-based. As to conditions: peptide 10 µM 30 minutes before Helicobacter pylori (strain Cag J117), 7 hours. How it is done:
To evaluate the biological activity and effects of peptide H-Glu-Asp-Gly-OH on mitochondrial mechanisms of apoptosis in gastric epitheliocytes, induced by Helicobacter pylori germs, human gastric epithelium cells SGC7901 were studied. The cells were cultivated at 37°C in a damp incubation medium containing 50 mL/L CO2 in DMEM (Dulbecco's Modified Eagle's Medium, ICN Biomedicals) and 10% calf embryonic serum. A preliminary separation of cells for passaging was carried out in the ratio of 1:3-1:5 using a mixture of 0.125% trypsin, 0.02M EDTA (ethylenediaminetetraacetic acid), 0.02% glucose dissolved in a phosphate buffer. The cells were placed on a 24-well plate in the amount of 10^6 cells per well. The cells were passaged in a cultivation medium for 5 days and then taken for study.
On the 5th day after the beginning of cell passaging the peptide H-Glu-Asp-Gly-OH in the dose of 10 µM was administered in the cultivation medium, and in 30 minutes of incubation the cells were taken for study. Klacid antibiotic (clarithromycin, Abbott) in the dose of 500 ng/mL was administered to the cultures in the same conditions as positive control. […]
The status of isolated mitochondria was evaluated using immunofluorescent confocal laser microscopy. […]
Confocal microscopy of mitochondria with optical density evaluation was performed in an inverted confocal microscope Olympus Fluoview CM FV300-IX70 using an apochromatic lens 606 UPlan (Olympus). A 488 nm excitation wave of argon laser was used in each chamber to specify mito-GFP fluorescence that verifies the structure of mitochondria.

With “glutamyl-aspartyl-glycine [H-Glu-Asp-Gly-OH]”, the “ulcer pathomorphosis, 7th day” value in the test on modeled ulcer (7th day after ulcer induction, treatment daily for 5 days, peptide 1, 2,5, 10 µg/kg subcutaneously or intragastrically, Klacid 10 mg intramuscularly) is “a decrease both in the area of the ulcerous lesion and in its depth was observed”. Besides, the “ulcer pathomorphosis, 15th day” value with modeled ulcer (15th day after ulcer induction, treatment daily for 5 days, peptide 1, 2,5, 10 µg/kg subcutaneously or intragastrically, Klacid 10 mg intramuscularly) is “a significant decrease in ulcerous lesion area and depth was observed”. Further, the “ulcer pathomorphosis, 21st day” value with modeled ulcer (21st day after ulcer induction, treatment daily for 5 days, peptide both methods of administration and three dosages, Klacid 10 mg intramuscularly) is “no ulcerous lesions were macroscopically observed”. In addition, in the test with modeled ulcer (21st day, peptide dose 2,5 µg/kg), the “pathomorphosis of an induced gastric ulcer (Fig. 12 C)” value is recorded as “complete epithelization of the ulcer”. In addition, the “delay of epithelialization of the ulcerous lesion compared to higher doses” value in the test on modeled ulcer (dose 1,0 µg/kg (Groups 3a and 3d) versus 2,5 µg/kg and 10 µg/kg) is 2 to 3 days. The “mitochondrial GFP expression by optical density” value in test [1] (control 2.57±0.23, H. pylori alone 0.35±0.05) is listed as 2.48±0.17 conv. units. Also, the “mitochondrial GFP expression by expression area” value in test [1] (control 3.42±0.19, H. pylori alone 0.63±0.03) was found to be 3.84±0.20%.
